Holding throughout (test): Isothermal titration calorimetry
Holding throughout (format): binding
What all share (details): SD, n = 3
(Isothermal titration calorimetry measures the heat released or taken up as one component is titrated into another.)

The target in one assay is T1, AngaD7L2 (Anopheles gambiae, UniProt A0A1S4GYJ6).
T1 sequence (A0A1S4GYJ6 19-315): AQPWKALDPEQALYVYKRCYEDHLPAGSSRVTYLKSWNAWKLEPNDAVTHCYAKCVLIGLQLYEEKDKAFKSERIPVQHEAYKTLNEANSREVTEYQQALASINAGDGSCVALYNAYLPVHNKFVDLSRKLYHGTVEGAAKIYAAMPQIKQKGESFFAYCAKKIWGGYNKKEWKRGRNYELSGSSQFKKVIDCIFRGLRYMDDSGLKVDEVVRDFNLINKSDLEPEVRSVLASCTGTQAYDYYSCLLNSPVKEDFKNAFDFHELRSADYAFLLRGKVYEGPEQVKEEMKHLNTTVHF

Another assay has as its target T2, AngaD7L1 (Anopheles gambiae, UniProt Q7PJ76).
T2 sequence (Q7PJ76 22-311): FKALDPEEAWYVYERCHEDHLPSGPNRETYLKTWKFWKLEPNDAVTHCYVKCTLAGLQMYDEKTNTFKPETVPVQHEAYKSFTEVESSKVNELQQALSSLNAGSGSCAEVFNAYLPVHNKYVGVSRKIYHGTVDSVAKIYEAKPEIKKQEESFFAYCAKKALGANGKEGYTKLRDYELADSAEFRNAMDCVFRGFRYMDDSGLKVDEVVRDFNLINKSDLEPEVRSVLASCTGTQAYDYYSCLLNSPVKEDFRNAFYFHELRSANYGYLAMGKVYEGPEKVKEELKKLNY

In a further assay the target is AngaD7L3 (Anopheles gambiae, UniProt A0A1S4HE90).
AngaD7L3, sequence (A0A1S4HE90 27-354): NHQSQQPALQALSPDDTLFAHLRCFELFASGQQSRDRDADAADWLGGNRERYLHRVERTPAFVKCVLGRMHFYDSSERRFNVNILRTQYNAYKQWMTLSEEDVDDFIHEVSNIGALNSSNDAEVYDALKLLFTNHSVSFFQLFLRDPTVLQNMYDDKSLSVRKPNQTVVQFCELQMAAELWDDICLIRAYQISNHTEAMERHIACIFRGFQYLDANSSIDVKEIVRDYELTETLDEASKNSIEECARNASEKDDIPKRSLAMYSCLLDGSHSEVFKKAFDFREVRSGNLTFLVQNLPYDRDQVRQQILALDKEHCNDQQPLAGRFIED

Broadly, the Kd is the free concentration of one partner at which half of the binding sites on the other are occupied at equilibrium, for simple one-to-one binding. The compound `CCCCC/C=C\C\C=C/C=C/C=C/[C@@H](SC[C@H](N)C(=O)NCC(=O)O)[C@@H](O)CCCC(=O)O` [LTD4, leukotriene D4] returned a Kd at AngaD7L2 of 1000 nM. For the compound `CCCCC[C@H](O)/C=C/[C@@H]1[C@@H](C/C=C\CCCC(=O)O)[C@H]2CO[C@@H]1C2` [U-46619, 9,11-dideoxy-9alpha,11alpha-methanoepoxyprostaglandin F2alpha (thromboxane A2 analog)], the Kd at AngaD7L1 is 400 nM.

On to `NCCc1c[nH]c2ccc(O)cc12` [Serotonin, 5-hydroxytryptamine (5-HT)], for which the Kd on AngaD7L3 worked out at 20 nM.

In the case of `CCCCC/C=C\C[C@@H](O)/C=C/C=C/C=C\[C@@H](O)CCCC(=O)O` [LTB4, leukotriene B4], binding at AngaD7L2 was characterised by a dissociation constant (Kd) of 800 nM. With `CCCCC/C=C\C\C=C/C=C/C=C/[C@@H](SC[C@H](NC(=O)CC[C@H](N)C(=O)O)C(=O)NCC(=O)O)[C@@H](O)CCCC(=O)O` [LTC4, leukotriene C4], binding at AngaD7L1 was characterised by a dissociation constant (Kd) of 2000 nM.

Source of the values: paper PMC9123270 (The Journal of Biological Chemistry, 2022).
